In the assay the target is full-length ATR (Homo sapiens (Human), UniProt Q13535). The assay is described as follows: ATR Inhibition Assay (radioactive-phosphate incorporation). In kind it is biochemical. The following applies: read-out: ATR Ki. Put shortly:
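Ki(app) was derived by non-linear regression of background-corrected initial rates of 33P incorporation into an 800 μM target peptide, read by phosphocellulose filter scintillation counting. Reaction conditions: 5 nM full-length ATR, 10 μM [γ-33P]ATP, pH 7.5 Tris buffer with MgCl2 and DTT, 25 °C, 10-min preincubation, 24 h run.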

The structures appear in SMILES notation.

full-length ATR, sequence (Q13535 whole entry): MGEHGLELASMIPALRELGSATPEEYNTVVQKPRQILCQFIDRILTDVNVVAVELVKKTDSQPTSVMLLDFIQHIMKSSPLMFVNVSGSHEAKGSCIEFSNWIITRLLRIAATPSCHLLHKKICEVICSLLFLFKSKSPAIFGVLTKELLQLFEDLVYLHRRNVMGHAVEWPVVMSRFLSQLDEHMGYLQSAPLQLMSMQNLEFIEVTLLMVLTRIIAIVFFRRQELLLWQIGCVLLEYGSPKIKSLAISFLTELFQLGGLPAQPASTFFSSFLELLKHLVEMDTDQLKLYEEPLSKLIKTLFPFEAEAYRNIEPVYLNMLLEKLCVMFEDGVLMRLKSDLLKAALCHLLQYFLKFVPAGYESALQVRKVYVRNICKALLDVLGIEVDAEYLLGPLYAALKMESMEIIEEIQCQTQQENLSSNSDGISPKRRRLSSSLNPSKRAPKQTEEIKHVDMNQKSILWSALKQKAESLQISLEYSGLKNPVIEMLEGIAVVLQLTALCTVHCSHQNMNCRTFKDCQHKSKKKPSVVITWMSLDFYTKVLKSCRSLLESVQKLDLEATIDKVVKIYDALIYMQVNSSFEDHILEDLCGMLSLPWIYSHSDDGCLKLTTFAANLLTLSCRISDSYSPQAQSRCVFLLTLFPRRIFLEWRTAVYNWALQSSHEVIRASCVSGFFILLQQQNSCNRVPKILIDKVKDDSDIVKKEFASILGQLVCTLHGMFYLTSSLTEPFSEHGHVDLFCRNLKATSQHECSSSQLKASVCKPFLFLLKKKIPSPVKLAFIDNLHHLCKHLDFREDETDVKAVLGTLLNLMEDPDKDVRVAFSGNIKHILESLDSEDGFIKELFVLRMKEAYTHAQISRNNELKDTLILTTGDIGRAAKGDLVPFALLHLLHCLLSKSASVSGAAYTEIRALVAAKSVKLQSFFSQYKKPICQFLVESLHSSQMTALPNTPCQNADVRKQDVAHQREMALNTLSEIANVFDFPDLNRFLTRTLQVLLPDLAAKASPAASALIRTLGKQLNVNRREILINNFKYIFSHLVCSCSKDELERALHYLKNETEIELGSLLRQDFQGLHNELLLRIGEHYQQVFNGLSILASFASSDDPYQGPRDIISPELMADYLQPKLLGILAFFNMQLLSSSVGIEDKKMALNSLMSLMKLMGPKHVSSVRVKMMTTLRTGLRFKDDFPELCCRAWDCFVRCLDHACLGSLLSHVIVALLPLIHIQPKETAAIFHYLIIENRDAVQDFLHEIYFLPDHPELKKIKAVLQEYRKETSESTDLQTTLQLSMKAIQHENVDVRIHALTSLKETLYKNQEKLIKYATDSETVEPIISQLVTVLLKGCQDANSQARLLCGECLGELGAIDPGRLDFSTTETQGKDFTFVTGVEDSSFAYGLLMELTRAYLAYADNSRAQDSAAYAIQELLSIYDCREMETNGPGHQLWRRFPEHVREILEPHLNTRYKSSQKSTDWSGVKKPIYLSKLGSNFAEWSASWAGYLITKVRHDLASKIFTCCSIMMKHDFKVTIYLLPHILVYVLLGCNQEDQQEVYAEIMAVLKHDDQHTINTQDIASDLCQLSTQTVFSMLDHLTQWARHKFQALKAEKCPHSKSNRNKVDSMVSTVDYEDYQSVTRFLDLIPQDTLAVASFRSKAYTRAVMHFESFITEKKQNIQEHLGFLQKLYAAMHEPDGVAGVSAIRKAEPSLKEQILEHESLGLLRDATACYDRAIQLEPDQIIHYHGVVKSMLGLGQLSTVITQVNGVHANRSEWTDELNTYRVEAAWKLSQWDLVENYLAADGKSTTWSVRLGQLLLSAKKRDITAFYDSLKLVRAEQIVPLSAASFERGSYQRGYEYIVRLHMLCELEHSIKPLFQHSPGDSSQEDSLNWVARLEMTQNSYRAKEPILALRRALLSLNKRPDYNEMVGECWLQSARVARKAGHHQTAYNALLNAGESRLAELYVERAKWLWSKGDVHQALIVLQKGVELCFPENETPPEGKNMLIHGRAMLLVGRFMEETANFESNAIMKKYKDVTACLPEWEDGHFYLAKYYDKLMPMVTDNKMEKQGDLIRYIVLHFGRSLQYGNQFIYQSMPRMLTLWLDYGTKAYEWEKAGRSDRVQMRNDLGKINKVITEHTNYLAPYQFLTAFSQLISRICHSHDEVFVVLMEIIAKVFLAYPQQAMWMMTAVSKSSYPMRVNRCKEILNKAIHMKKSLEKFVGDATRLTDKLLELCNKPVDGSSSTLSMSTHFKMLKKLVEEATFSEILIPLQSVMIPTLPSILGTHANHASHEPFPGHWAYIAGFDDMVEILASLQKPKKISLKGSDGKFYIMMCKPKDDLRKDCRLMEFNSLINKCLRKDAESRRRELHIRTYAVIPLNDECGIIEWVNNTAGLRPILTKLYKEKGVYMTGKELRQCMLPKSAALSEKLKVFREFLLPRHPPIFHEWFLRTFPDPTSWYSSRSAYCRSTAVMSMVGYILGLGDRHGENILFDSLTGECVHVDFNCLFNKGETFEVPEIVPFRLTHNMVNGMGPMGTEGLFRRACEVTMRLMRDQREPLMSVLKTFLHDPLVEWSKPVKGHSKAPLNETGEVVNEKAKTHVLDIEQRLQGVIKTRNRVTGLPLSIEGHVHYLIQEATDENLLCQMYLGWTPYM

The term Ki denotes the dissociation constant of the complex between target and ligand, obtained from inhibition or displacement. In the case of `CC(C)S(=O)(=O)c1ccc(-c2cnc(N)c(-c3nnc(NC(=O)[C@@H]4CCCN4)o3)n2)cc1` [IA-217, (2S)—N-[5-[3-amino-6-(4-isopropylsulfonylphenyl)pyrazin-2-yl]-1,3,4-oxadiazol-2-yl]pyrrolidine-2-carboxamide], the Ki was 100 to 5000 nM.

Take `CN(C)C(=O)c1ccc(-c2cnc(N)c(-c3nnc(N4CCC4)o3)n2)cc1` [IA-192, 4-[5-amino-6-[5-(azetidin-1-yl)-1,3,4-oxadiazol-2-yl]pyrazin-2-yl]-N,N-dimethyl-benzamide]: the Ki lay within 100 to 5000 nM.

As for `CC(C)S(=O)(=O)c1ccc(-c2cnc(N)c(-c3nnc(-c4ccc([C@@H](C)N)cc4)o3)n2)cc1` [IA-124, 3-[5-[4-[(1R)-1-aminoethyl]phenyl]-1,3,4-oxadiazol-2-yl]-5-(4-isopropylsulfonylphenyl)pyrazin-2-amine], the inhibitory constant (Ki) was not above 10 nM.

On to `Nc1ncc(-c2cccnc2)nc1C(=O)Nc1ccc(F)cc1` [Compound I-94, 3-amino-N-(4-fluorophenyl)-6-(pyridin-3-yl)pyrazine-2-carboxamide], for which the inhibition constant (Ki) fell in the range of 100 to 5000 nM.

In the case of `CNCc1ccc(-c2nnc(-c3nc(-c4ccc(S(=O)(=O)C(C)C)cc4)cnc3N)o2)c(C)c1` [IA-166, 5-(4-isopropylsulfonylphenyl)-3-[5-[2-methyl-4-(methylaminomethyl)phenyl]-1,3,4-oxadiazol-2-yl]pyrazin-2-amine], the Ki is not above 10 nM.

With `CC(C)(C)OC(=O)N1CCCN(C(=O)c2ccc(-c3cnc(N)c(-c4nnc(-c5ccccc5)o4)n3)c(C#N)c2)CC1` [IA-19], the inhibition constant Ki is not above 10 nM.

`Nc1ncc(-c2ccc(N3CCOCC3)nc2)nc1C(=O)Nc1ccccc1` [Compound I-34, 3-amino-6-(6-morpholinopyridin-3-yl)-N-phenylpyrazine-2-carboxamide]: the Ki lay within 10 to 100 nM.

For `COC(=O)N1CCCN(C(=O)c2ccc(-c3cnc(N)c(-c4nnc(-c5ccccc5)o4)n3)cc2)CC1` [IA-34], the Ki was not above 10 nM.

Turning to `Nc1ncc(-c2ccc(C(=O)N3CCNCC3)c(F)c2)nc1-c1nnc(-c2ccccc2)o1` [IA-7], the inhibition constant Ki was 10 to 100 nM.

As for `Nc1ncc(-c2cc(F)c(C(=O)N3CCCNCC3)c(F)c2)nc1-c1nnc(-c2ccccc2)o1` [IA-38], the Ki lay within 10 to 100 nM.

As to `CN(C)C(=O)c1ccc(-c2cnc(N)c(-c3nnc(-c4ccccc4)o3)n2)c(-c2cnco2)c1` [IA-161, 4-[5-amino-6-(5-phenyl-1,3,4-oxadiazol-2-yl)pyrazin-2-yl]-N,N-dimethyl-3-oxazol-5-yl-benzamide], the inhibition constant Ki was 10 to 100 nM.

Regarding `Nc1ncc(-c2ccc(O)nc2)nc1-c1nc2ccccc2[nH]1` [Compound I-137, 5-(5-amino-6-(1H-benzo[d]imidazol-2-yl)pyrazin-2-yl)pyridin-2-ol], the Ki lay within 10 to 100 nM.

Consider `Nc1ncc(-c2cccc(F)c2)nc1C(=O)Nc1ccccc1` [Compound I-9, 3-amino-6-(3-fluorophenyl)-N-phenylpyrazine-2-carboxamide], for which the inhibitory constant (Ki) was in the range of 100 to 5000 nM.

Regarding `CN(C)CCS(=O)(=O)c1ccc(-c2cnc(N)c(-c3nnc(-c4ccc(O)cc4)o3)n2)cc1` [IA-191, 4-[5-[3-amino-6-[4-(2-dimethylaminoethylsulfonyl)phenyl]pyrazin-2-yl]-1,3,4-oxadiazol-2-yl]phenol], the inhibitory constant (Ki) was not above 10 nM.

Regarding `CCOC(=O)N1CCN(C(=O)c2ccc(-c3cnc(N)c(-c4nnc(-c5ccccc5)o4)n3)cc2)CC1` [IA-11], the inhibition constant Ki was 10 to 100 nM.

In the case of `C#Cc1nnc(-c2nc(-c3ccc(S(=O)(=O)C(C)C)cc3)cnc2N)o1` [IA-258, 3-(5-ethynyl-1,3,4-oxadiazol-2-yl)-5-(4-isopropylsulfonylphenyl)pyrazin-2-amine], the Ki is not above 10 nM.

As for `Nc1ncc(-c2ccccc2O)nc1-c1nnc(-c2ccccc2)o1` [IA-61], the inhibition constant Ki was in the range of 10 to 100 nM.

`CNCc1ccc(-c2nnc(-c3nc(-c4ccc(S(=O)(=O)C(C)C)cc4)cnc3N)o2)cc1Cl` [IA-309, 3-[5-[3-chloro-4-(methylaminomethyl)phenyl]-1,3,4-oxadiazol-2-yl]-5-(4-isopropylsulfonylphenyl)pyrazin-2-amine]: the Ki is not above 10 nM.

As to `Nc1ncc(-c2ccc(S(=O)(=O)C3CCNCC3)cc2)nc1-c1nnc(-c2ccccc2)o1` [IA-197, 3-(5-phenyl-1,3,4-oxadiazol-2-yl)-5-[4-(4-piperidylsulfonyl)phenyl]pyrazin-2-amine], the Ki was not above 10 nM.

In the case of `CC(C)S(=O)(=O)c1ccc(-c2cnc(N)c(-c3nnc(-c4ccccc4)o3)n2)cc1` [IA-116, 5-(4-isopropylsulfonylphenyl)-3-(5-phenyl-1,3,4-oxadiazol-2-yl)pyrazin-2-amine], the inhibition constant (Ki) is not above 10 nM.

For `Nc1ncc(-c2cccnc2)nc1C(=O)Nc1ccccc1` [Compound I-85, 3-amino-N-phenyl-6-(pyridin-3-yl)pyrazine-2-carboxamide], the inhibitory constant (Ki) was in the range of 10 to 100 nM.

For `Nc1ncc(-c2ccc(N3CCNCC3)nc2)nc1-c1nnc(-c2ccccc2)o1` [IA-186, 3-(5-phenyl-1,3,4-oxadiazol-2-yl)-5-(6-piperazin-1-yl-3-pyridyl)pyrazin-2-amine], the inhibition constant Ki lay in the range of 100 to 5000 nM.

For the compound `Nc1ncc(-c2ccc(C(=O)NCCCO)cc2)nc1-c1nc2ccccc2[nH]1` [Compound I-128, 4-(5-amino-6-(1H-benzo[d]imidazol-2-yl)pyrazin-2-yl)-N-(3-hydroxypropyl)benzamide], the Ki was in the range of 10 to 100 nM.

As for `CC(O)c1cccc(-c2nnc(-c3nc(-c4ccc(C(=O)N(C)C)cc4)cnc3N)o2)c1` (stereo not drawn) [IA-275, 4-[5-amino-6-[5-[3-(1-hydroxyethyl)phenyl]-1,3,4-oxadiazol-2-yl]pyrazin-2-yl]-N,N-dimethyl-benzamide], the Ki lay within 10 to 100 nM.

For `Cc1ccc2nc(-c3nc(-c4ccc(C(=O)N5CCCN(C)CC5)cc4)cnc3N)[nH]c2c1` [III-5, (4-(5-amino-6-(6-methyl-1H-benzo[d]imidazol-2-yl)pyrazin-2-yl)phenyl)(4-methyl-1,4-diazepan-1-yl)methanone], the inhibition constant Ki lay within 10 to 100 nM.

Turning to `Cc1ccsc1-c1nnc(-c2nc(-c3ccc(S(=O)(=O)C(C)C)cc3)cnc2N)o1` [IA-276, 5-(4-isopropylsulfonylphenyl)-3-[5-(3-methyl-2-thienyl)-1,3,4-oxadiazol-2-yl]pyrazin-2-amine], the Ki was not above 10 nM.

With `Nc1ncc(-c2cccc(C(=O)N3CCC(O)C3)c2)nc1C(=O)Nc1ccccc1` (stereo not drawn) [Compound I-65, 3-amino-6-(3-(3-hydroxypyrrolidine-1-carbonyl)phenyl)-N-phenylpyrazine-2-carboxamide], the inhibitory constant (Ki) is 100 to 5000 nM.

Consider `CNC(=N)c1ccc(-c2nnc(-c3nc(-c4ccc(S(=O)(=O)C(C)C)cc4)cnc3N)o2)cc1` [IA-208, 4-[5-[3-amino-6-(4-isopropylsulfonylphenyl)pyrazin-2-yl]-1,3,4-oxadiazol-2-yl]-N-methyl-benzamidine], for which the inhibition constant (Ki) was not above 10 nM.

Take `Nc1ncc(-c2cccc(C(=O)N3CCOCC3)c2)nc1C(=O)Nc1ccccc1` [Compound I-20, 3-amino-6-(3-(morpholine-4-carbonyl)phenyl)-N-phenylpyrazine-2-carboxamide]: the inhibitory constant (Ki) was in the range of 10 to 100 nM.

On to `CN1CCC(NC(=O)c2ccc(-c3cnc(N)c(C(=O)Nc4ccccc4)n3)cc2)CC1` [Compound I-64, 3-amino-6-(4-(1-methylpiperidin-4-ylcarbamoyl)phenyl)-N-phenylpyrazine-2-carboxamide], for which the Ki fell in the range of 100 to 5000 nM.

In the case of `CN(C)C(=O)c1ccc(-c2cnc(N)c(-c3nnc(-c4cccc(N)n4)o3)n2)cc1` [IA-231, 4-[5-amino-6-[5-(6-amino-2-pyridyl)-1,3,4-oxadiazol-2-yl]pyrazin-2-yl]-N,N-dimethyl-benzamide], the Ki lay in the range of 10 to 100 nM.

In the case of `CN(C)CCCOc1ccc(-c2cnc(N)c(-c3nnc(-c4ccccc4)o3)n2)cn1` [IA-279, 5-[6-[3-(dimethylamino)propoxy]-3-pyridyl]-3-(5-phenyl-1,3,4-oxadiazol-2-yl)pyrazin-2-amine], the inhibitory constant (Ki) was 100 to 5000 nM.

With `CN(C)C(=O)c1ccc(-c2cnc(N)c(-c3nnc(N4CCOCC4)o3)n2)cc1` [IA-45], the inhibition constant Ki is 100 to 5000 nM.

On to `CC(N)C(=O)Nc1nnc(-c2nc(-c3ccc(S(=O)(=O)C(C)C)cc3)cnc2N)o1` (stereo not drawn) [IA-272, 2-amino-N-[5-[3-amino-6-(4-isopropylsulfonylphenyl)pyrazin-2-yl]-1,3,4-oxadiazol-2-yl]propanamide], for which the Ki was in the range of 100 to 5000 nM.

For the compound `CN(C)C(=O)c1ccc(-c2cnc(N)c(-c3nnc(-c4ccccc4C(F)(F)F)o3)n2)cc1` [IA-233, 4-[5-amino-6-[5-[2-(trifluoromethyl)phenyl]-1,3,4-oxadiazol-2-yl]pyrazin-2-yl]-N,N-dimethyl-benzamide], the inhibition constant Ki lay in the range of 10 to 100 nM.

As for `N#Cc1cc(C(=O)N2CCCNCC2)ccc1-c1cnc(N)c(-c2nnc(-c3ccccc3)o2)n1` [IA-20], the Ki is not above 10 nM.

As for `COc1ccccc1NC(=O)c1nc(-c2cccnc2)cnc1N` [Compound I-106, 3-amino-N-(2-methoxyphenyl)-6-(pyridin-3-yl)pyrazine-2-carboxamide], the Ki lay within 10 to 100 nM.

As for `N#Cc1cnccc1-c1cnc(N)c(-c2nnc(-c3ccccc3)o2)n1` [IA-35], the Ki is not above 10 nM.

Turning to `COc1ccccc1NC(=O)c1nc(-c2ccc(C(=O)N(C)C)cc2)cnc1N` [Compound I-28, 3-amino-6-(4-(dimethylcarbamoyl)phenyl)-N-(2-methoxyphenyl) pyrazine-2-carboxamide], the inhibitory constant (Ki) was not above 10 nM.

With `COCCN(C)C(=O)c1cccc(-c2cnc(N)c(C(=O)Nc3ccccc3)n2)c1` [Compound I-67, 3-amino-6-(3-((2-methoxyethyl)(methyl)carbamoyl)phenyl)-N-phenylpyrazine-2-carboxamide], the Ki lay in the range of 10 to 100 nM.

Turning to `CC(=O)c1ccc(-c2cnc(N)c(C(=O)Nc3ccccc3)n2)cc1` [Compound I-17, 6-(4-acetylphenyl)-3-amino-N-phenylpyrazine-2-carboxamide], the inhibition constant Ki is 100 to 5000 nM.

As for `CC(C)S(=O)(=O)c1ccc(-c2cnc(N)c(-c3nnc(C(=O)N4CC(N)C4)o3)n2)cc1` [IA-120, (3-aminoazetidin-1-yl)-[5-[3-amino-6-(4-isopropylsulfonylphenyl)pyrazin-2-yl]-1,3,4-oxadiazol-2-yl]methanone], the inhibition constant (Ki) was in the range of 10 to 100 nM.

Values taken from patent US10479784B2, “Substituted pyrazin-2-amines as inhibitors of ATR kinase” (Vertex Pharmaceuticals Incorporated, priority 2008, dated 2019).
